Experimental data published in publication PMC3721637 (Chemistry & biology, 2009).
No end group written: not given here. carboxyfluorescein = carboxyfluorescein N-terminal label

Experiments:
[1] = Biomarker dosing in rats following IFN-γ treatment, plasma level; type: in vivo, rat
[2] = target: recombinant soluble HLA-DQ2 heterodimer (thrombin-cleaved DQ2-αI-gliadin peptide complex) (human) (UniProt P01909); test: SEC

LQLQPF (PQPHLPY)3PQPQPF [[^13C3]-HHH-33-mer]
IFN-γ-treated rats with biomarker detected in plasma ([1]; 20 mg oral gavage after 2 days i.v. IFN-γ, plasma 60 min, 3Q LC-MS/MS): one of four | plasma level in IFN-γ-treated animal relative to control animal ([1]; rats, oral biomarker, single animals with detectable plasma biomarker): ~ 10 fold

carboxyfluorescein-LQLQPFPQPELPYPQPELPYPQPELPYPQPQPF [fluorescein-conjugated EEE-33-mer (synthetically deamidated 33-mer from α2-gliadin)]
percent of peptide bound [2]: > 80%

carboxyfluorescein-LQLQPFPQPNLPYPQPNLPYPQPNLPYPQPQPF [fluorescein-conjugated NNN-33-mer biomarker]
fold by which EEE-33-mer binds more than this peptide [2]: 15.6 fold
